Series [1] deals with 5/6 nephrectomized rats (kidney failure model with 2HPT). As to the kind of experiment: Ca and Pi in serum (serum Ca×Pi product) of 5/6 nephrectomized rats. In kind it is in vivo, rat. The following applies: for serum Ca×Pi product over the SNX control group: three times a week, 7 administrations. The text has this: (§1) Rats with 5/6 nephrectomy (5/6 nephrectomized rats) were used as an experimental model to examine the agent of the present invention for its effect on cardiovascular complications. Such 5/6 nephrectomized rats are widely used as an experimental nephritis model with 2HPT (Ichikawa et al., Nephrology, vol. 4, pp. 391-395, 1998).
(§2) Seven-week-old male SD rats (Japan SLC, Inc.) were subjected to 5/6 nephrectomy according to the method of Platt et al. (Platt R. et al., Clin. Sci. 11, 217-231, 1952) to remove the whole of the right kidney and 2/3 of the left kidney. The rats were then allowed to rest for 10 weeks to create a kidney failure model with 2HPT.
(§3) The nephrectomized rats were divided into 4 test groups: OCT 1.25 μg/kg group (8 rats), OCT 6.25 μg/kg group (8 rats), 1,25(OH)2D3 0.125 μg/kg group (8 rats) and 1,25(OH)2D3 0.625 μg/kg group (8 rats).
(§4) Starting at 10 weeks after surgery, the rats of each group were administered with a given dose of OCT or 1,25-dihydroxyvitamin D3 (each dissolved in phosphate buffer, pH 6.52) via the tail vein. Administration was conducted three times a week for a total of 7 administration (i.e., on Monday, Wednesday, Friday, Monday, Wednesday, Friday and Monday). Twenty-four hours after the last administration, the blood was collected from the abdominal descending aorta of each rat under ether anesthesia. The rats were then sacrificed by exsanguination and the heart and aorta were excised from each rat.
(§5) Six rats of sham-operated (Sham control) group were subjected to renal decapsulation alone instead of 5/6 nephrectomy and then treated in the same manner as used for the test groups, except that phosphate buffer (Ph 6.52) was administered instead of OCT or 1,25-dihydroxyvitamin D3. Likewise, 9 rats of SNX control group were treated in the same manner as used for the test groups, except that phosphate buffer (pH 6.52) was administered instead of OCT or 1,25-dihydroxyvitamin D3.
2. Ca and Pi in serum After serum was separated from the collected blood, Ca and Pi contained in the serum were measured with a Hitachi 7170-E autoanalyzer using an Autosera reagent (Daiichi Pure Chemicals Co., Ltd.) to determine the serum Ca×Pi product for each rat.
(§6) The relationship between Sham control group and SNX control group was analyzed by unpaired t-test. The relationship between SNX control group and each OCT- or 1,25(OH)2D3-administered group was analyzed by Dunnett's multiple comparison test.

Series [2] shares this test system. The series can be described thus: Ca and Pi contents in individual organs (aorta and heart) of 5/6 nephrectomized rats. In kind it is in vivo, rat.
Text: as §1, §2, §3, §4, §5
Each heart and aorta were lyophilized for 24 hours in a FREEZE DRYER FD-5N (trade name, EYELA) and then treated for 48 hours with a chloroform/methanol solution (chloroform:methanol=2:1, special-reagent-grade chloroform and methanol were both purchased from Junsei Chemical Co., Ltd.). Subsequently, each organ was dehydrated for 3 hours with acetone (special reagent grade, Junsei Chemical Co., Ltd.) and then allowed to stand at room temperature for 24 hours. After delipidization and dehydration, each organ was transferred to a crucible and weighed to determine dry weight (Mettler). Ashing was carried out in a muffle furnace KDF S90 (trade name, Denken Co., Ltd., Kyoto, Japan) at 900° C. for 12 hours. The ashed sample was mixed with […] hydrochloric acid (1.0 mL), allowed to stand for 3 hours to dissolve sufficiently, and then collected in a polypropylene tube. The crucible was washed with purified water (1.0 mL), which was then also collected in the tube. Each sample was stored at 4° C. until measurement. Ca and Pi were measured with a Hitachi 7170-E autoanalyzer to calculate the Ca and Pi contents per gram of each organ.
as §6

Series [3] has the same test system. As to the kind of experiment: Parathyroid hormone levels in blood (serum PTH, radioimmunoassay) of 5/6 nephrectomized rats. In kind it is in vivo, rat. Particulars: for effect on serum PTH levels: all doses (OCT 1.25 and 6.25 μg/kg, 1,25(OH)2D3 0.125 and 0.625 μg/kg), versus SNX control.
Text: as §1, §2, §3
Starting at 10 weeks after surgery, the rats of each group were administered with a given dose of OCT or 1,25-dihydroxyvitamin D3 (each dissolved in phosphate buffer, pH 6.52) via the tail vein. Administration was conducted three times a week for a total of 7 administration (i.e., on Monday, Wednesday, Friday, Monday, Wednesday, Friday and Monday). Twenty-four hours after the last administration, the blood was collected from the abdominal descending aorta of each rat under ether anesthesia. The rats were then sacrificed by exsanguination and the heart and aorta were excised from each rat. […]
After serum was separated from the collected blood, the level of parathyroid hormone (PTH) contained in the serum was measured with a commercially available radioimmunoassay kit (Immutopics, Inc., USA).
as §6

For series [4] the following is noted: in vivo; cited from earlier work.
[5] abbreviates: 5/6 nephrectomized rats, via tail vein.
The mark [6] stands for this setting: 1,25(OH)2D3 0.125 μg/kg group versus OCT 6.25 μg/kg group (almost the same serum Ca×Pi product).

In the case of `C=C1/C(=C\C=C2/CCC[C@]3(C)[C@@H]([C@H](C)OCCC(C)(C)O)CC[C@@H]23)C[C@@H](O)C[C@@H]1O` [OCT, 1α,3β-dihydroxy-20S-(3-hydroxy-3-methylbutyloxy)-9,10-seco-5,7,10(19)-pregnatriene], the blood calcium levels result in series [1] (rat, in vivo) is given as “does not cause increase”. Moreover, in series [2] (rat, in vivo), the “deposition of Ca and Pi in the aorta and heart, OCT-administered groups versus 1,25(OH)2D3-administered groups” value is on record as “significantly lower deposition”. The “effect on serum PTH levels” value in series [3] is on record as “decreasing effect on PTH levels at all doses”. The blood half-life result in series [4] is “about 20 minutes”.
Consider `C=C1/C(=C\C=C2/CCC[C@]3(C)[C@@H]([C@H](C)CCCC(C)(C)O)CC[C@@H]23)C[C@@H](O)C[C@@H]1O` [1,25-dihydroxyvitamin D3], for which the “serum Ca×Pi product over the SNX control group” value in series [1] (0.125 μg/kg via tail vein) is “no significant elevation”. Besides, the “serum Ca×Pi product over the SNX control group” value in series [1] (0.625 μg/kg via tail vein, 24 h after last administration, p<0.001) is “significant elevation”. In addition, in series [1] (setting [5]), the “minimum dose required to produce an elevating action on Ca×Pi product” value is 0.625 µg/kg. The “serum Ca×Pi product, comparison of the two groups” value in series [1] (OCT 6.25 μg/kg group versus 1,25(OH)2D3 0.125 μg/kg group) was “almost the same level”. For the same compound, in series [2] (0.125 and 0.625 μg/kg, p<0.001), the “Ca content in the aorta over the SNX control group” value is “dose-dependent significant increases”, the “Ca content in the heart over the SNX control group” value is given as “dose-dependent significant increases”, the “Pi content in the aorta over the SNX control group” value was “dose-dependent significant increases” and the “Pi content in the heart over the SNX control group” value is “dose-dependent significant increases”. Further, in series [2] (setting [6]), the “deposition of Ca in the aorta as compared to OCT” value is reported as “apparently higher deposition” and the “deposition of Pi in the aorta as compared to OCT” value is “apparently higher deposition”. In series [2] (1,25(OH)2D3 0.125 μg/kg group versus OCT 6.25 μg/kg group, p<0.01), the “deposition of Pi in the heart as compared to OCT” value is listed as “significantly higher deposition”. The “deposition of Ca in the heart as compared to OCT” value in series [2] (1,25(OH)2D3 0.125 μg/kg group versus OCT 6.25 μg/kg group, p<0.05) is “significantly higher deposition”. Besides, the “dose at which the therapeutic effect on secondary hyperparathyroidism (decreasing effect on PTH levels) can be produced” value in series [3] (setting [5]) is 0.125 µg/kg. The “effect on serum PTH levels” value in series [3] is reported as “decreasing effect on PTH levels at all doses”. Also, the blood half-life in series [4] was at least 1 h.

(Values after patent publication US20040248859A1, “Medicinal compositions for treating secondary parathyroid hyperfunction and remedies for cardiovascular complications in association with treatment for secondary parathyroid hyperfunction” (priority 2001, published 2004).)
